Laboratory results from US20040063662A1, “Selenophene anti-tumor agents” (priority 1996, published 2004).

What was measured:
[1] = tested on: CCRF-CEM; assay: NCI human tumor cell panel: CCRF-CEM (Leukemia); assay type: cell-based; settings: Leukemia
[2] = tested on: K-562; assay: NCI human tumor cell panel: K-562 (Leukemia); assay type: cell-based; settings: K562, K-562, Leukemia
[3] = tested on: MOLT-4; assay: NCI human tumor cell panel: MOLT-4 (Leukemia); assay type: cell-based; settings: MOLT-4, Leukemia
[4] = tested on: RPMI-8226; assay: NCI human tumor cell panel: RPMI-8226 (Leukemia); assay type: cell-based; settings: RPMI-8226, Leukemia
[5] = tested on: A549/ATCC; assay: NCI human tumor cell panel: A549/ATCC (Non-Small Cell Lung Cancer); assay type: cell-based; settings: Non-Small Cell Lung Cancer
[6] = tested on: NCI-H460; assay: NCI human tumor cell panel: NCI-H460 (Non-Small Cell Lung Cancer); assay type: cell-based; settings: NCI-H460, Non-Small Cell Lung Cancer
[7] = tested on: HCC-2998; assay: NCI human tumor cell panel: HCC-2998 (Colon Cancer); assay type: cell-based; settings: HCC-2998, Colon Cancer, read-out: Log10 GI50 (converted)
[8] = tested on: HCT-116; assay: NCI human tumor cell panel: HCT-116 (Colon Cancer); assay type: cell-based; settings: HCT-116, Colon Cancer
[9] = tested on: SF-295; assay: NCI human tumor cell panel: SF-295 (CNS Cancer); assay type: cell-based; settings: SF-295, CNS Cancer
[10] = tested on: SNB-19; assay: NCI human tumor cell panel: SNB-19 (CNS Cancer); assay type: cell-based; settings: SNB-19, CNS Cancer
[11] = tested on: SNB-75; assay: NCI human tumor cell panel: SNB-75 (CNS Cancer); assay type: cell-based; settings: SNB-75, CNS Cancer, read-out: Log10 GI50 (converted)
[12] = tested on: U251; assay: NCI human tumor cell panel: U251 (CNS Cancer); assay type: cell-based; settings: U-251, U251, CNS Cancer
[13] = tested on: LOX IMVI; assay: NCI human tumor cell panel: LOX IMVI (Melanoma); assay type: cell-based; settings: Melanoma
[14] = tested on: M14; assay: NCI human tumor cell panel: M14 (Melanoma); assay type: cell-based; settings: M14, Melanoma
[15] = tested on: SK-MEL-5; assay: NCI human tumor cell panel: SK-MEL-5 (Melanoma); assay type: cell-based; settings: SK-MEL-5, Melanoma
[16] = tested on: UACC-257; assay: NCI human tumor cell panel: UACC-257 (Melanoma); assay type: cell-based; settings: UACC-257, Melanoma
[17] = tested on: IGROV1; assay: NCI human tumor cell panel: IGROV1 (Ovarian Cancer); assay type: cell-based; settings: IGROV-1, IGROV1, Ovarian Cancer
[18] = tested on: OVCAR-3; assay: NCI human tumor cell panel: OVCAR-3 (Ovarian Cancer); assay type: cell-based; settings: OVCAR-3, Ovarian Cancer
[19] = tested on: OVCAR-8; assay: NCI human tumor cell panel: OVCAR-8 (Ovarian Cancer); assay type: cell-based; settings: OVCAR-8, Ovarian Cancer
[20] = tested on: 786-0; assay: NCI human tumor cell panel: 786-0 (Renal Cancer); assay type: cell-based; settings: 786-0, Renal Cancer
[21] = tested on: ACHN; assay: NCI human tumor cell panel: ACHN (Renal Cancer); assay type: cell-based; settings: Renal Cancer
[22] = tested on: TK-10; assay: NCI human tumor cell panel: TK-10 (Renal Cancer); assay type: cell-based; settings: TK-10, Renal Cancer
[23] = tested on: UO-31; assay: NCI human tumor cell panel: UO-31 (Renal Cancer); assay type: cell-based; settings: UO-31, Renal Cancer
[24] = tested on: PC-3; assay: NCI human tumor cell panel: PC-3 (Prostate Cancer); assay type: cell-based; settings: PC-3, Prostate Cancer
[25] = tested on: DU-145; assay: NCI human tumor cell panel: DU-145 (Prostate Cancer); assay type: cell-based; settings: DU-145, Prostate Cancer
[26] = tested on: MCF7; assay: NCI human tumor cell panel: MCF7 (Breast Cancer); assay type: cell-based; settings: MCF7, Breast Cancer
[27] = tested on: MCF7/ADR-RES; assay: NCI human tumor cell panel: MCF7/ADR-RES (Breast Cancer); assay type: cell-based; settings: Breast Cancer
[28] = tested on: HS 578T; assay: NCI human tumor cell panel: HS 578T (Breast Cancer); assay type: cell-based; settings: Breast Cancer
[29] = tested on: MDA-MB-435; assay: NCI human tumor cell panel: MDA-MB-435 (Breast Cancer); assay type: cell-based; settings: MDA-MB-435, Breast Cancer
[30] = tested on: MDA-N; assay: NCI human tumor cell panel: MDA-N (Breast Cancer); assay type: cell-based; settings: Breast Cancer
[31] = tested on: BT-549; assay: NCI human tumor cell panel: BT-549 (Breast Cancer); assay type: cell-based; settings: BT-549, Breast Cancer
[32] = tested on: HOP-92; assay: NCI human tumor cell panel: HOP-92 (Non-Small Cell Lung Cancer)
[33] = read-out: Log10 GI50 (converted)
[34] = read-out: Log10 TGI (converted)

O=Cc1ccc(-c2ccc(-c3cccs3)[se]2)s1 [NSC 675346]
GI50 [1, 33]: > 100 µM
IC (TGI) [1, 34]: > 100 µM
GI50 [2, 33]: 2.29 µM
IC (TGI) [2, 34]: > 100 µM
GI50 [3, 33]: > 100 µM
IC (TGI) [3, 34]: > 100 µM
GI50 [4, 33]: > 100 µM
IC (TGI) ([4]; read-out: Log10 TGI): > 100 µM
GI50 [5, 33]: 55 µM
IC (TGI) [5, 34]: > 100 µM
GI50 [6, 33]: 0.251 µM
IC (TGI) [6, 34]: > 100 µM
GI50 [7]: 0.234 µM
GI50 [8, 33]: 0.115 µM
IC (TGI) [8, 34]: > 100 µM
GI50 [9, 33]: 21.4 µM
IC (TGI) [9, 34]: 69.2 µM
GI50 [10, 33]: 21.9 µM
IC (TGI) [10, 34]: 95.5 µM
GI50 [11]: 13.8 µM
GI50 [12, 33]: 0.0575 µM
IC (TGI) [12, 34]: 25.7 µM
GI50 [13, 33]: 19.5 µM
IC (TGI) [13, 34]: > 100 µM
GI50 [14, 33]: 28.2 µM
IC (TGI) [14, 34]: > 100 µM
GI50 [15, 33]: 46.8 µM
IC (TGI) [15, 34]: > 100 µM
GI50 [16, 33]: 0.0263 µM
IC (TGI) [16, 34]: 0.0832 µM
GI50 [17, 33]: 0.162 µM
IC (TGI) [17, 34]: 0.562 µM
GI50 [18, 33]: 0.0191 µM
IC (TGI) [18, 34]: 21.4 µM
GI50 [19, 33]: 4.47 µM
IC (TGI) [19, 34]: > 100 µM
GI50 [20, 33]: 13.5 µM
IC (TGI) [20, 34]: > 100 µM
GI50 [21, 33]: 22.9 µM
IC (TGI) [21, 34]: > 100 µM
GI50 [22, 33]: 0.0631 µM
IC (TGI) [22, 34]: 0.417 µM
GI50 [23, 33]: 35.5 µM
IC (TGI) [23, 34]: > 100 µM
GI50 [24, 33]: 61.7 µM
IC (TGI) [24, 34]: > 100 µM
GI50 [25, 33]: 28.8 µM
IC (TGI) [25, 34]: > 100 µM
GI50 [26, 33]: 0.813 µM
IC (TGI) [26, 34]: > 100 µM
GI50 [27, 33]: 13.2 µM
IC (TGI) [27, 34]: 60.3 µM
GI50 [28, 33]: 23.4 µM
IC (TGI) [28, 34]: > 100 µM
GI50 [29, 33]: 28.2 µM
IC (TGI) [29, 34]: 87.1 µM
GI50 [30, 33]: > 100 µM
IC (TGI) [30, 34]: > 100 µM
GI50 [31, 33]: ≥ 100 µM
IC (TGI) [31, 34]: > 100 µM
GI50 ([32]; HOP-92, read-out: Log10 GI50 (converted)): 18.6 µM
IC (TGI) ([32]; HOP-92, read-out: Log10 TGI): 70.8 µM
